Values quoted from earlier work, collected in patent US9090606B2, “Compounds” (CHIESI FARMACEUTICI S.p.A., priority 2012, dated 2015).

Key:
[1] = test system: COPD patients
[2] = test system: smoking model of COPD in mice
[3] = patients with severe disease, frequent exacerbations and mucus hypersecretion

SMILES: O=C(Nc1c(Cl)cncc1Cl)c1ccc(OC(F)F)c(OCC2CC2)c1 [roflumilast]
- reduction of the numbers of neutrophils in sputum ([1]; COPD patients, oral, given over 4 weeks): 36%
- improvement of FEV 1 [1, 3]: approximately 50 mL
- reduction of exacerbation [1, 3]: about 15%
- effect on lung inflammation and emphysema [2]: inhibits lung inflammation and emphysema
